We go through 13 compounds from US20130109734A1 (Metabolex, Inc., priority 2010, published 2013).

For the experiment, the target named is T1, human GPR120 (Homo sapiens, UniProt Q5NUL3).
T1 construct: host or cells: HEK293 cells co-expressing Gqi5
T1 sequence (Q5NUL3 1-361): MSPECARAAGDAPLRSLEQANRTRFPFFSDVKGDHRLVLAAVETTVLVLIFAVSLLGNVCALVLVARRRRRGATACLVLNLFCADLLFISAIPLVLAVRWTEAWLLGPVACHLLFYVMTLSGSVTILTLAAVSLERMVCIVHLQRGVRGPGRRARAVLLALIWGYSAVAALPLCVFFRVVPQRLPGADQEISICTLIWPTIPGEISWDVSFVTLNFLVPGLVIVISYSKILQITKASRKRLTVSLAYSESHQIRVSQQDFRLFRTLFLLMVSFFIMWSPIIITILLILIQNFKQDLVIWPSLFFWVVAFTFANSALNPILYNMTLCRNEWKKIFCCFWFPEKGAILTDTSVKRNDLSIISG
Briefly: Intracellular Ca2+ assay in human GPR120 stable cell line (HEK293 co-expressing Gqi5), Flexstation. The experiment is classed as cell-based. As to conditions: % activity at 5 μM compared to the maximal activity of GW9508 at 6.7 μM (=100%); human GPR120 cells, Ca2+ fluorescence. The gist of the method: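 HEK293 cells stably co-expressing Gqi5 and Flag-tagged human GPR120, loaded with Calcium 4 dye in HBSS/HEPES pH 7.4 at 37 °C; compounds at eight concentrations, 0.00001–20 μM, fluorescence (485/525 nm) read 90 s. EC50 from Max−Min change; percent activity relative to GW9508 maximum at 6.7 μM.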

The structures appear in SMILES notation.

Regarding `CC1(C)Cc2cc(F)cc(COc3ccc4c(c3)CCCC4CC(=O)O)c2O1` (stereo not shown) [Example 153, 2-(6-((5-fluoro-2,2-dimethyl-2,3-dihydrobenzofuran-7-yl)methoxy)-1,2,3,4-tetrahydronaphthalen-1-yl)acetic acid], the “% Activity (GW9508 Reference Compound)” value was found to be 106.81%.
For `CC1(C)Cc2cc(Cl)cc(COc3ccc(C(C)(C)CC(=O)O)cc3)c2O1` [Example 156, 3-(4-((5-chloro-2,2-dimethyl-2,3-dihydrobenzofuran-7-yl)methoxy)phenyl)-3-methylbutanoic acid], the “% Activity (GW9508 Reference Compound)” value is given as 148.87%.
For the compound `CC(Cc1ccc(OCc2cc(Cl)cc3c2OC2(CCCC2)C3)cc1)C(=O)O` (stereo not shown) [Example 159, 3-(4-((5-chloro-3H-spiro[benzofuran-2,1′-cyclopentane]-7-yl)methoxy)phenyl)-2-methylpropanoic acid], the “% Activity (GW9508 Reference Compound)” value is 164.79%.
Consider `CC1(C)Cc2cc(F)cc(COc3ccc(CCCC(=O)O)cc3)c2O1` [Example 160, 4-(4-((5-fluoro-2,2-dimethyl-2,3-dihydrobenzofuran-7-yl)methoxy)phenyl)butanoic acid], for which the “% Activity (GW9508 Reference Compound)” value is 172.13%.
As to `CC(Cc1ccc(OCc2cc(F)cc3c2OC2(CCCC2)C3)cc1)C(=O)O` (stereo not shown) [Example 162, 3-(4-((5-fluoro-3H-spiro[benzofuran-2,1′-cyclopentane]-7-yl)methoxy)phenyl)-2-methylpropanoic acid], the “% Activity (GW9508 Reference Compound)” value came to 154.48%.
Turning to `O=C(O)C1CC1c1ccc(OCc2cc(F)cc3c2OC2(CCCC2)C3)cc1` (stereo not shown) [Example 165, 2-(4-((5-fluoro-3H-spiro[benzofuran-2,1′-cyclopentane]-7-yl)methoxy)phenyl)cyclopropanecarboxylic acid], the “% Activity (GW9508 Reference Compound)” value amounted to 158.08%.
Consider `CC(CCc1ccc(OCc2cc(F)cc3c2OC(C)(C)C3)cc1)C(=O)O` (stereo not shown) [Example 171, 4-(4-((5-fluoro-2,2-dimethyl-2,3-dihydrobenzofuran-7-yl)methoxy)phenyl)-2-methylbutanoic acid], for which the “% Activity (GW9508 Reference Compound)” value is recorded as 98.97%.
The value for `COc1cc(CCC(=O)O)ccc1OCc1cc(F)cc2c1OC(C)(C)C2` [Example 173, 3-(4-((5-fluoro-2,2-dimethyl-2,3-dihydrobenzofuran-7-yl)methoxy)-3-methoxyphenyl)propanoic acid] was 159.06%; that for `CC1(C)Cc2cc(F)cc(COc3ccc4c(c3)CC[C@H]4CC(=O)O)c2O1` [Example 175, (S)-2-(5-((5-fluoro-2,2-dimethyl-2,3-dihydrobenzofuran-7-yl)methoxy)-2,3-dihydro-1H-inden-1-yl)acetic acid] was 152.44%; that for `CC1(C)Cc2cc(Cl)cc(COc3ccc4c(c3)CC[C@H]4CC(=O)O)c2O1` [Example 176, (S)-2-(5-((5-chloro-2,2-dimethyl-2,3-dihydrobenzofuran-7-yl)methoxy)-2,3-dihydro-1H-inden-1-yl)acetic acid] was 138.42%.
Regarding `CC1(C)Cc2cc(F)cc(COc3ccc4c(c3)CC[C@@H]4CC(=O)O)c2O1` [Example 178, (R)-2-(5-((5-fluoro-2,2-dimethyl-2,3-dihydrobenzofuran-7-yl)methoxy)-2,3-dihydro-1H-inden-1-yl)acetic acid], the “% Activity (GW9508 Reference Compound)” value worked out at 106%.
For the compound `CC1(C)Cc2cc(Cl)cc(COc3ccc4c(c3)CC[C@@H]4CC(=O)O)c2O1` [Example 179, (R)-2-(5-((5-chloro-2,2-dimethyl-2,3-dihydrobenzofuran-7-yl)methoxy)-2,3-dihydro-1H-inden-1-yl)acetic acid], the “% Activity (GW9508 Reference Compound)” value came out at 105.44%.
As to `CC(CC(=O)O)Cc1ccc(OCc2cc(F)cc3c2OC(C)(C)C3)cc1` (stereo not shown) [Example 182, 4-(4-((5-fluoro-2,2-dimethyl-2,3-dihydrobenzofuran-7-yl)methoxy)phenyl)-3-methylbutanoic acid], the “% Activity (GW9508 Reference Compound)” value came to 98.43%.
